From the supplement of paper PMC8671470

Legend:
Conditions in all cases: 72 h
[1] = test system: KU-812
Procedure, shortened: (§1)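 Each of fifteen myeloid leukaemia cell lines was seeded in RPMI 1640 at a density titrated to its linear growth range. The cells were incubated for 72 h at 37 °C and 5% CO2 with compounds at five tenfold doses from 1 to 10,000 nM, in duplicate. After ATP luminescence was normalised to vehicle and to a positive control at 10 µM, four-parameter log-logistic curves were fitted. These curves gave the IC50.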

[2] = test system: ML-2
Procedure, shortened: as §1

[3] = test system: NOMO-1
Procedure, shortened: as §1

[4] = test system: K-562
Procedure, shortened: as §1

[5] = test system: SHI-1
Procedure, shortened: as §1

[6] = test system: MOLM-13
Procedure, shortened: as §1

[7] = test system: KCL-22
Procedure, shortened: as §1

[8] = test system: LAMA-84
Procedure, shortened: as §1

[9] = test system: THP-1
Procedure, shortened: as §1

[10] = test system: KG-1
Procedure, shortened: as §1

[11] = test system: HL-60
Procedure, shortened: as §1

[12] = test system: Mono-Mac-6
Procedure, shortened: as §1

[13] = test system: BV-173
Procedure, shortened: as §1

[14] = test system: HEL
Procedure, shortened: as §1

[15] = test system: MV4-11
Procedure, shortened: as §1

[16] = test system: LAMA-84; assay: cell viability (% survival relative to DMSO control, bortezomib = 0%); higher = less cytotoxic
Procedure, shortened: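 Percent survival is reported as the mean of duplicate wells. Cells from 10 AML and 5 CML lines were plated in 384-well plates containing compounds at 1, 10, 100, 1000 or 10000 nM and kept for 72 h at 37 °C in 5% CO2. Readout used CellTiter-Glo luminescence, scaled so that vehicle equals 100% and a 10 µM positive control equals 0%.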

Structure (SMILES)	IC50 (cell viability) [1] [µM]	IC50 (cell viability) [2] [µM]	IC50 (cell viability) [3] [µM]	IC50 (cell viability) [4] [µM]	IC50 (cell viability) [5] [µM]	IC50 (cell viability) [6] [µM]	IC50 (cell viability) [7] [µM]	IC50 (cell viability) [8] [µM]	IC50 (cell viability) [9] [µM]	IC50 (cell viability) [10] [µM]	IC50 (cell viability) [11] [µM]	IC50 (cell viability) [12] [µM]	IC50 (cell viability) [13] [µM]	IC50 (cell viability) [14] [µM]	IC50 (cell viability) [15] [µM]	cell viability ([16]; 1 nM) [%]	cell viability ([16]; 10 nM) [%]	cell viability ([16]; 100 nM) [%]	cell viability ([16]; 1000 nM) [%]	cell viability ([16]; 10000 nM) [%]
Clc1ccc2c(c1Cl)CNCC2	> 10	> 10	> 10	> 10	> 10	> 10	> 10	> 10	> 10	> 10	> 10	> 10	> 10	> 10	> 10	98.6	105	93.7	110	94.4
O=C(O)C(S)=Cc1c[nH]c2ccc(F)cc12	> 10	> 10	> 10	> 10	> 10	> 10	> 10	> 10	> 10	> 10	> 10	> 10	> 10	> 10	> 10	96.9	98.2	92.6	102	102
CC(C)Cc1sc(N)nc1-c1ccc(P(=O)(O)O)o1	> 10	> 10	> 10	> 10	> 10	> 10	> 10	> 10	> 10	> 10	> 10	> 10	> 10	> 10	> 10	111	97.4	102	94.4	80.3
Cl.OC[C@H]1NC[C@@H](O)[C@@H](O)[C@@H]1O [1-Deoxymannojirimycin hydrochloride]	> 10	> 10	> 10	> 10	> 10	> 10	> 10	> 10	> 10	> 10	> 10	> 10	> 10	> 10	> 10	99.5	93.4	102	94	95.6
CN(C)c1nc(O)c2[nH]cnc2n1 [2-Dimethylamino-6-hydroxypurine]	> 10	> 10	> 10	> 10	> 10	> 10	> 10	> 10	> 10	> 10	> 10	> 10	> 10	> 10	> 10	101	104	97.7	99.3	103
O=C(O)c1cc2sccc2[nH]1 [4H-thieno[3,2-b]pyrrole-5-carboxylic acid]	> 10	> 10	> 10	> 10	> 10	> 10	> 10	> 10	> 10	> 10	> 10	> 10	> 10	> 10	> 10	101	99.3	110	95.4	105
[N-]=[N+]=CC(=O)CC[C@H](N)C(=O)O [6-Diazo-5-oxo-L-norleucine]	> 10	> 10	> 10	> 10	> 10	> 10	> 10	> 10	> 10	> 10	> 10	> 10	> 10	> 10	> 10	98.5	98.8	101	97.7	100
Sc1ncnc2nc[nH]c12 [6-mercaptopurine]	2.51	1.1	0.441	0.732	1.52	0.907	1.01	1.33	> 10	> 10	0.964	1.03	0.527	1.91	0.332	102	86.6	87.9	55.3	12.6
O=C(O)CC[C@H](NC(=O)c1ccc([N+](=O)[O-])cc1)C(=O)O [(S)-2-(4-Nitrobenzamido)pentanedioic acid]	> 10	> 10	> 10	> 10	> 10	> 10	> 10	> 10	> 10	> 10	> 10	> 10	> 10	> 10	> 10	98.8	77.2	99.6	103	100
O=C1Nc2ccccc2/C1=C\NCCc1ccc(O)c(O)c1 [AC1NZZMF]	> 10	> 10	> 10	> 10	> 10	> 10	> 10	> 10	> 10	> 10	> 10	> 10	> 10	> 10	> 10	107	108	102	101	107
Cc1ccc(S(=O)(=O)NC2c3ccccc3Oc3ccccc32)cc1 [AH-7614]	> 10	> 10	> 10	> 10	> 10	> 10	> 10	> 10	> 10	> 10	> 10	> 10	> 10	> 10	> 10	93.7	98.8	101	95.5	105
C[C@]12CC[C@H](O)CC1=CC[C@@H]1[C@@H]2CC[C@]2(C)C(c3cccnc3)=CC[C@@H]12 [Abiraterone]	> 10	> 10	> 10	> 10	> 10	> 10	> 10	> 10	> 10	> 10	> 10	> 10	> 10	> 10	> 10	105	106	94.1	102	108
O=C(COc1ccc(C(=O)c2ccccc2)cc1)NC1CCN(Cc2ccccc2)CC1 [AdipoRon]	8.38	> 10	> 10	> 10	> 10	> 10	> 10	> 10	> 10	9.73	> 10	> 10	7.82	> 10	> 10	96.9	102	93.8	96.7	61.1
CCOC(=O)[C@H]1O[C@@H]1C(=O)N[C@@H](CC(C)C)C(=O)NCCC(C)C [Aloxistatin]	> 10	> 10	5.52	> 10	> 10	> 10	> 10	> 10	> 10	> 10	> 10	> 10	> 10	> 10	> 10	93.7	101	101	101	98.6
N[C@](CCCCB(O)O)(CCN1CCCCC1)C(=O)O [Arginase inhibitor 1]	> 10	> 10	> 10	> 10	> 10	> 10	> 10	> 10	> 10	> 10	> 10	> 10	> 10	> 10	> 10	99.9	102	96.1	102	88.9
Cc1noc2c1-c1ccccc1C(c1ccc(Cl)cc1)=N[C@H]2CC(N)=O [CPI-0610]	0.422	1.26	0.349	0.377	0.5	0.274	0.624	1.59	0.765	0.135	0.2	0.142	0.538	1.52	0.146	107	92.3	98.4	67.2	33.6
Nc1ccn([C@@H]2O[C@H](CO)[C@@H](O)[C@@H]2O)c(=O)n1 [Cytarabine]	0.034	0.0681	2.29	0.092	0.135	0.0806	0.0389	0.0585	4.77	0.116	0.43	0.364	0.00472	0.0478	0.566	93	80.3	38.5	12.9	5
CCOc1ccc(Cc2cc([C@@H]3O[C@H](CO)[C@@H](O)[C@H](O)[C@H]3O)ccc2Cl)cc1 [Dapagliflozin]	> 10	> 10	> 10	> 10	> 10	> 10	> 10	> 10	> 10	> 10	> 10	> 10	> 10	> 10	> 10	98.1	111	89.7	97.7	90.5
CCN(CC)CCN(Cc1ccc(-c2ccc(C(F)(F)F)cc2)cc1)C(=O)Cn1c(SCc2ccc(F)cc2)nc(=O)c2c1CCC2 [Darapladib]	1.98	2.62	2.82	1.64	2.59	2.15	2.32	2.23	2.94	2.42	2.07	2.9	2.15	2.63	3.36	101	83.5	99.7	80.6	-0.44
O=C(O)C(Cl)Cl [Dichloroacetate]	> 10	> 10	> 10	> 10	> 10	> 10	> 10	> 10	> 10	> 10	> 10	> 10	> 10	> 10	> 10	101	100	98	101	99.3
O=C1Oc2ccccc2C(=O)C1CC1C(=O)Oc2ccccc2C1=O (stereo not given) [Dicumarol]	> 10	> 10	> 10	> 10	> 10	> 10	> 10	> 10	> 10	> 10	> 10	> 10	> 10	> 10	> 10	97.3	107	95.5	103	105
CC12CCC(O)CC1CCC1C2CCC2(C)C(C3=CC(=O)OC3)CCC12O (stereo not given) [Digitoxigenin]	0.368	0.35	0.437	0.184	0.358	0.122	0.331	0.234	0.286	0.264	0.338	0.213	0.24	0.336	0.323	109	105	84.6	6.05	0.855
C[C@H]1O[C@@H](O[C@H]2[C@@H](O)C[C@H](O[C@H]3[C@@H](O)C[C@H](O[C@H]4CC[C@@]5(C)[C@H](CC[C@@H]6[C@@H]5C[C@@H](O)[C@]5(C)[C@@H](C7=CC(=O)OC7)CC[C@]65O)C4)O[C@@H]3C)O[C@@H]2C)C[C@H](O)[C@@H]1O [Digoxin]	0.0647	0.0386	0.123	0.0855	0.0453	0.034	0.0555	0.0546	0.0752	0.0639	0.0342	0.0424	0.0361	0.102	0.0402	92.3	115	20.6	2.17	2.06
O=c1c2ccccc2[se]n1-c1ccccc1 [Ebselen]	> 10	> 10	> 10	> 10	> 10	> 10	> 10	> 10	> 10	> 10	> 10	> 10	> 10	> 10	> 10	93.3	97.1	95.5	92.1	101
Clc1ccc(COC(Cn2ccnc2)c2ccc(Cl)cc2Cl)cc1 (stereo not given) [Econazole]	7.24	8.94	> 10	2.39	> 10	0.925	6.71	> 10	> 10	6.84	3.64	> 10	2.28	> 10	1.08	103	95.5	91.8	92	58.1
